According to patent publication US7947741B2, “Use and administration of bacterial efflux pump inhibitors” (Mpex Pharmaceuticals, Inc., priority 2004, dated 2011):
≈ marks a conversion by molar mass, not a printed value. Read-outs that look alike come from different tables or passages of the source.

Key:
[1] = tested on: outer membrane of P. aeruginosa strain PAM2005; assay: microbe, parasite or virus in culture; conditions: Pseudomonas aeruginosa, read-out: IC50, permeabilization of the outer membrane
[2] = tested on: P. aeruginosa PAM1626 (lacks all the three efflux pumps); assay: microbe, parasite or virus in culture; format: cell-based, Pseudomonas aeruginosa; conditions: for Levofloxacin MIC in the presence of inhibitor: PAM1626
[3] = tested on: PAM1723 cells; assay: EtBr uptake (proton gradient disruption); format: cell-based, Pseudomonas aeruginosa; conditions: CCCP 50 μg/ml for 15 minutes, pentamidine 80 μg/ml
Description: A proton gradient is necessary for efflux pump activity. Accordingly, compounds that are capable of proton gradient disruption will appear as efflux inhibitors in accumulation assays. This possibility was tested for pentamidine. EtBr is a substrate of the MexAB-OprM efflux pump from P. aeruginosa as evident from the differential rates of its uptake in PAM 1723 and PAM 1626, MexAB-OprM overexpressing or lacking strains, respectively. CCCP is a well-known protonophore, which rapidly dissipates the proton gradient.

[4] = tested on: 108 recent clinical isolates of P. aeruginosa obtained from cystic fibrosis patients; assay: Susceptibility of cystic fibrosis clinical isolates (broth-micro-dilution, NCCLS); format: cell-based, Pseudomonas aeruginosa; conditions: 108 CF isolates; pentamidine 20 μg/ml
[5] = for AUC (0-4)/AUC (0-168) / AUC (0-8)/AUC (0-168) / AUC (0-24)/AUC (0-168) / Ke (β): CF sputum, high dose, Mean; for Ke (β): β phase
[6] = clinical; conditions: human, in vivo
[7] = cited from earlier work
[8] = tested on: P. aeruginosa PAM1723 (nalB, overexpressing MexAB-OprM); assay: microbe, parasite or virus in culture; format: cell-based, Pseudomonas aeruginosa
Description: Stock solutions were further diluted, according to the needs of a particular assay, in Mueller Hinton Broth (MHB). Stock solution was stored at −80° C.
The checkerboard assay was performed in microtiter plates. […] The result of these manipulations is that each well of the microtiter plate contains a unique combination of concentrations of the two agents. The assay was performed in MHB with a final bacterial inoculum of 5×10^5 CFU/ml (from an early-log phase culture). Microtiter plates were incubated during 20 h at 35° C. and were read using a microtiterplate reader (Molecular Devices) at 650 nm as well as visual observation using a microtiter plate reading mirror.
The test organisms used was PAM1020, which is a wild type strain of P. aeruginosa expressing the basal level of MexAB-OprM, as well as PAM1723, PAM1738, and PAM1753, overexpressing the MexAB-OprM, MexCD-OprJ, and MexEF-OprN pump, respectively.
Efflux pump inhibitory activity of several commercially available diamidine analogs was evaluated using the checkerboard assay of Example 1 against the strain of P. aeruginosa overexpressing the MexAB-OprM efflux pump.

[9] = tested on: PAM1626 cells (lacking the efflux pump); assay: Leu-Nap accumulation assay; conditions: Leu-Nap 100 μg/ml, pentamidine 0 to 80 μg/ml
Description: Leu-Nap, which is not fluorescent in solution, is cleaved enzymatically inside the cells to produce highly fluorescent β-naphthylamine. The more Leu-Nap enters cells, the more fluorescence is produced. The rate of production of β-naphthylamine (recorded as an increase in fluorescence) is limited by the rate of entry of Leu-Nap into the cell. To assess the uptake of Leu-Nap, cultures of P. aeruginosa were grown to OD600 ˜1, washed and re-suspended in buffer at pH 7.0 containing K2HPO4 50 mM, MgSO4 1 mM, and Glucose 0.4% (Buffer A). Assays were performed in 96-well flat bottom black plates (Applied Scientific or Costar) in a final volume of 200 μl and were initiated by addition of Leu-Nap to suspensions of intact cells to a final concentration of 100-20 μg/ml. Fluorescence was measured on a fMAX spectrofluorometer (Molecular Devices) using excitation of 320 nm and emission of 460 nm.

[10] = tested on: Pneumocystis carini; conditions: cited from earlier work
[11] = 24 hours after 300 mg in a jet nebulizer

## N=C(N)c1ccc(OCCCCCOc2ccc(C(=N)N)cc2)cc1 [Pentamidine, pentamidine]
[1]
  IC50: > 64 µg/mL
[2]; inhibitor 1.25 μg/ml
  Levofloxacin MIC in the presence of inhibitor: 0.007 µg/mL
[2]; inhibitor 2.5 μg/ml
  Levofloxacin MIC in the presence of inhibitor: 0.007 µg/mL
[2]; inhibitor 5 μg/ml
  Levofloxacin MIC in the presence of inhibitor: 0.007 µg/mL
[2]; PAM1626 lacking efflux pumps
  decrease in levofloxacin MIC: Almost no decrease
[2]; Pseudomonas aeruginosa, read-out: MIC* (MIC for the efflux pump inhibitor)
  MIC: 10 µg/mL (≈ 29.4 µM)
[3]
  EtBr uptake: did not result in increased EtBr uptake
[4]
  decrease of MIC50 of levofloxacin and ciprofloxacin: 8 fold
  decrease of MIC90 of levofloxacin and ciprofloxacin: 2 fold
[5]; Aerogen Clinical
  AUC (0-4)/AUC (0-168): 46%
  AUC (0-8)/AUC (0-168): 61%
  AUC (0-24)/AUC (0-168): 77%
  Ke (β): 0.070 h⁻¹
[5]; Respirgard II
  AUC (0-4)/AUC (0-168): 30%
  AUC (0-8)/AUC (0-168): 41%
  AUC (0-24)/AUC (0-168): 66%
  Ke (β): 0.074 h⁻¹
[5]; human, in vivo
  AUC (0 to 168): 57000 ng·h/mL
  AUC (0 to infinity): 57000 ng·h/mL
  AUC (0 to last non-BLQ): 56000 ng·h/mL
  Tmax (0 to 168): 2.3 h
  high-dose β-phase elimination half-life (sputum): between one and two days
[6]
  concentration at 7 day: ≤ 110 ng/mL
[6]; 70 mg/4 ml, T1/2 (a), CF sputum, Aerogen Clinical, high dose, a phase 0-8 hours, Mean
  half-life: 2.2 h
[6]; 70 mg/4 ml, T1/2 (β), CF sputum, Aerogen Clinical, high dose, β phase, Mean
  half-life: 24.4 h
[6]; 300 mg/6 ml, T1/2 (a), CF sputum, Respirgard II, high dose, a phase 0-8 hours, Mean
  half-life: 2.6 h
[6]; 300 mg/6 ml, T1/2 (β), CF sputum, Respirgard II, high dose, β phase, Mean
  half-life: 26.7 h
[6]; AUC (0 to 168)
  AUC(0-t): 84000 ng·h/mL
[6]; AUC (0 to infinity)
  AUC(0-inf): 84000 ng·h/mL
[6]; AUC (0 to last non-BLQ)
  AUC(0-t): 83000 ng·h/mL
[6]; Tmax (0 to 168)
  Tmax: 1.8 h
[6]; α phase half-life for elimination from sputum
  half-life: 2.2 to 2.6 h
[7]; [11]
  concentration in bronchial alveolar lavage fluid sediment: 705 ± 242 ng/mL
  concentration in bronchial alveolar lavage fluid supernatant: 23.2 ± 7.75 ng/mL
[7]; after 3 weeks of daily administration of 3 mg/kg
  trough plasma concentration: 61.1 ± 56.0 ng/mL
[8]; PAM1723, inhibitor 1.25 μg/ml
  Levofloxacin MIC in the presence of inhibitor: 2 µg/mL
[8]; PAM1723, inhibitor 2.5 μg/ml
  Levofloxacin MIC in the presence of inhibitor: 1 µg/mL
[8]; PAM1723, inhibitor 5 μg/ml
  Levofloxacin MIC in the presence of inhibitor: 1 µg/mL
[8]; PAM1723, inhibitor 10 μg/ml
  Levofloxacin MIC in the presence of inhibitor: 0.5 µg/mL
[8]; PAM1723, inhibitor 10 μg/ml, listed as Pentamidine MP 601205
  Levofloxacin MIC in the presence of inhibitor: 1 µg/mL
[8]; PAM1723, inhibitor 20 μg/ml
  Levofloxacin MIC in the presence of inhibitor: 0.25 µg/mL
[8]; PAM1723, inhibitor 40 μg/ml
  Levofloxacin MIC in the presence of inhibitor: 0.06 µg/mL
[8]; PAM1723, inhibitor 80 μg/ml
  Levofloxacin MIC in the presence of inhibitor: 0.007 µg/mL
[8]; PAM1723, inhibitor alone, listed as Pentamidine MP 601205
  MIC* (MIC for the efflux pump inhibitor): >81 µg/mL
[8]; PAM1723, pentamidine at 20 μg/ml
  decrease of levofloxacin MIC: 8 fold
[8]; Pseudomonas aeruginosa, read-out: MIC* (MIC for the efflux pump inhibitor), PAM1723, inhibitor alone
  MIC: > 80 µg/mL
[8]; inhibitor at 10 μg/ml to 20 μg/ml
  reduction of the levofloxacin MIC of PAM1723 (2 μg/ml): at least 8 fold
[9]
  effect on Leu-Nap uptake: No such increase
[10]
  In vitro inhibitory activity: 0.3 µg/mL
